Laboratory results reported in patent US7199136B2, “1,4-dihydro-1,4-diphenylpyridine derivatives” (Bayer HealthCare AG, priority 2001, dated 2007).

molecular target: T1, human neutrophil elastase (HNE) (Homo sapiens, UniProt P08246); assay: In vitro inhibition of HNE using a fluorogenic peptide substrate (MeOSuc-Ala-Ala-Pro-Val-AMC), 384 MTP format; assay type: biochemical; details: 37° C.
T1 construct: purchased SERVA Electrophoresis GmbH, Heidelberg, Germany #20927.01
T1 sequence (P08246 30-267): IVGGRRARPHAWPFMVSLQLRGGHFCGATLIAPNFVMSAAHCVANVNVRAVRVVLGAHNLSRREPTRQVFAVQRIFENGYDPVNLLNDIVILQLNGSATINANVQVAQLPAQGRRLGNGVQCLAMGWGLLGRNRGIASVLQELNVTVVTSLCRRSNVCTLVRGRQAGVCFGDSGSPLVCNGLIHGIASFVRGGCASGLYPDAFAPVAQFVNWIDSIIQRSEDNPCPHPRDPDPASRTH
Procedure: I. In Vitro Assays of Human Neutrophil Elastase (HNE)
The test solution is prepared by mixing 10 μl of test compound dilution, 20 μl of HNE enzyme dilution (final concentration 8–0.4 μU/ml, routinely 2.1 μU/ml) and 20 μl of substrate dilution (final concentration 1 mM–1 μM, routinely 20 μM), respectively. The solution is incubated for 0–2 hrs at 37° C. (routinely one hour). The fluorescence of the liberated AMC due to the enzymatic reaction is measured at 37° C. (TECAN spectra fluor plus plate reader). […] IC50 values are determined by RFU-versus-[I] plots. Km and Km(app.) values are determined by Lineweaver-Burk plots and converted to Ki values by Dixon plots.

| Compound | IC50 [nM] |
| --- | --- |
| CCOC(=O)C1=C(N)N(c2cccc(CN(CC)CC)c2)C(C)=C(C(C)=O)C1c1ccc(C#N)cc1 (stereo not shown) [Example 17, Ethyl 5-acetyl-2-amino-4-(4-cyanophenyl)-1-{3-[(diethylamino)methyl]phenyl}-6-methyl-1,4-dihydro-3-pyridinecarboxylate] | 9000 |
| CCOC(=O)C1=C(N)N(c2cccc(C)c2)C(C)=C(C(C)=O)C1c1ccc(C#N)cc1 (stereo not shown) [Example 12, Ethyl 5-acetyl-2-amino-4-(4-cyanophenyl)-6-methyl-1-[3-methylphenyl]-1,4-di-hydro-3-pyridinecarboxylate] | 180 |
| CC(=O)C1=C(C)N(c2cccc(C(F)(F)F)c2)C(N)=C(C(N)=O)C1c1ccc(C#N)cc1 (stereo not shown) [Example 13, 5-Acetyl-2-amino-4-(4-cyanophenyl)-6-methyl-1-[3-(trifluoromethyl)phenyl]-1,4-dihydro-3-pyridinecarboxamide] | 30 |
| CC(=O)C1=C(C)N(c2cccc(C(F)(F)F)c2)C(=N)C(C(=O)N(C)C)C1c1ccc(C#N)cc1 (stereo not shown) [Example 14, 5-Acetyl-4-(4-cyanophenyl)-2-imino-N,N,6-trimethyl-1-[3-(trifluoromethyl)phenyl]-1,2,3,4-tetrahydro-3-pyridinecarboxamide] | 20 |
| CCOC(=O)C1=C(N)N(c2cc(OC)cc(C(F)(F)F)c2)C(C)=C(C(C)=O)C1c1ccc(C#N)cc1 (stereo not shown) [Example 18, Ethyl 5-acetyl-2-amino-4-(4-cyanophenyl)-1-[3-methoxy-5-(trifluoromethyl)phenyl]-6-methyl-1,4-dihydro-3-pyridinecarboxylate] | 30 |
| CCOC(=O)C1=C(C)N(c2cccc(C(F)(F)F)c2)C(C)=C(C(C)=O)C1c1ccc(C#N)cc1 (racemic) [Example 10, (±)-Ethyl 5-acetyl-4-(4-cyanophenyl)-2,6-dimethyl-1-[3-(trifluoromethyl)phenyl]-1,4-dihydro-3-pyridinecarboxylate] | 230 |
| CCOC(=O)C1=CN(c2cccc(C(F)(F)F)c2)C(C)=C(C(C)=O)C1c1ccc(C#N)cc1 (racemic) [Example 8, (±)-Ethyl 5-acetyl-4-(4-cyanophenyl)-6-methyl-1-[3-(trifluoromethyl)phenyl]-1,4-dihydro-3-pyridinecarboxylate] | 330 |
| CC(=O)C1=C(C)N(c2cccc(C(F)(F)F)c2)C(N)=C(C#N)C1c1ccc(C#N)cc1 (stereo not shown) [Example 15, 5-Acetyl-2-amino-4-(4-cyanophenyl)-6-methyl-1-[3-(trifluoromethyl)phenyl]-1,4-dihydro-3-pyridinecarbonitrile] | 120 |

tested on: human polymorphonuclear cells (PMNs); assay: In vitro PMN elastolysis assay (tritiated elastin); assay type: cell-based; details: at 1.2 μM; n=3 different donors at 3.6×10^5 cells per well; 4 hours at 37° C.
Procedure: II. In Vitro PMN Elastolysis Assay
This assay is used to determine the elastolytic potential of human polymorphonuclear cells (PMNs) and assess the proportion of degradation due to neutrophil elastase [cf. Z. W. She et al., Am. J. Respir. Cell. Mol. Biol. 9, 386–392 (1993)].
Tritiated elastin, in suspension, is coated on to a 96 well plate at 10 μg per well. Test and reference [ZD-0892 (J. Med. Chem. 40, 1876–1885, 3173–3181 (1997), WO 95/21855) and α1 protease inhibitor (α1PI)] compounds are added to the wells at the appropriate concentrations. Human PMNs are separated from peripheral venous blood of healthy donors and resuspended in culture media. […] Porcine pancreatic elastase (1.3 μM is used as a positive control for the assay, and α1PI (1.2 μM) is used as the positive inhibitor of neutrophil elastase. The cellular control is PMNs without compound at each appropriate cell density. The cells plus compounds are incubated in a humidified incubator at 37° C. for 4 hours. The plates are centrifuged to allow the harvest of cell supernatant only. The supernatant is transferred in 75 μl volumes to corresponding wells of a 96 well Lumaplate™ (solid scintillant containing plates). The plates are dried until no liquid is visible in the wells and read in a beta counter for 3 minutes per well. […]

| Compound | inhibition of 3H-elastin elastolysis (mean±s.e.m.) [%] |
| --- | --- |
| α1PI: α1 protease inhibitor, used as the positive inhibitor of neutrophil elastase | 83.46±3.97 |

same assay, conditions: n=2 different donors at 3.6×10^5 cells per well; read-out: IC50 (mean±s.e.m.) of elastolysis inhibition

| Compound | IC50 [nM] |
| --- | --- |
| COc1ccc(C(=O)N[C@H](C(=O)N2CCC[C@H]2C(=O)N[C@H](C(=O)C(F)(F)F)C(C)C)C(C)C)cc1 [ZD-0892, reference compound] | 45.5 ± 7.75 |
